Measurements from ChEMBL document CHEMBL1649201, “VanB-type Enterococcus faecium clinical isolate successively inducibly resistant to, dependent on, and constitutively resistant to vancomycin” (2009).
Converted amounts (≈) assume the structure as drawn.

Tests used:
Enterococcus faecium [1] = assay: Antimicrobial activity against vancomycin-resistant and teicoplanin-sensitive VanB-type Enterococcus faecium BM4659; assay type: functional
Enterococcus faecium [2] = assay: Antimicrobial activity against vancomycin-dependent VanB-type Enterococcus faecium BM4660; assay type: functional
Enterococcus faecium [3] = assay: Antimicrobial activity against vancomycin-revertant and teicoplanin-sensitive VanB-type Enterococcus faecium BM4661; assay type: functional
[4] = molecular target: T1, D,D-dipeptidase (Enterococcus faecium) (UniProt Q9EYV8); assay: Activity of D,D-dipeptidase in vancomycin-resistant and teicoplanin-sensitive VanB-type Enterococcus faecium BM4659 assessed as enzyme mediated D-Alanine release per mg protein at 8 ug/ml
T1 sequence (whole entry): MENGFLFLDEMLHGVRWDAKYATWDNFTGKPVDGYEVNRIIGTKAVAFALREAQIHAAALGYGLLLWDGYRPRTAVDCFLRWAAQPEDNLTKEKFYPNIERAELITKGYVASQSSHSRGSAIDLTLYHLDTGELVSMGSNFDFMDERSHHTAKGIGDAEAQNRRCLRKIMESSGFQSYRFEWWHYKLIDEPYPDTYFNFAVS

[5] = molecular target: T1, D,D-dipeptidase (Enterococcus faecium); assay: Activity of D,D-dipeptidase in vancomycin-dependent VanB-type Enterococcus faecium BM4660 assessed as enzyme mediated D-Alanine release per mg protein at 8 ug/ml
[6] = molecular target: T1, D,D-dipeptidase (Enterococcus faecium); assay: Activity of D,D-dipeptidase in vancomycin-revertant and teicoplanin-sensitive VanB-type Enterococcus faecium BM4661 assessed as enzyme mediated D-Alanine release per mg protein at 8 ug/ml
[7] = molecular target: T2, D,D-carboxypeptidase (Enterococcus faecium) (UniProt Q7BI95); assay: Activity of D,D-carboxypeptidase in vancomycin-resistant and teicoplanin-sensitive VanB-type Enterococcus faecium BM4659 membrane fraction assessed as enzyme mediated D-Alanine release per mg protein at 8 ug/ml
T2 sequence (whole entry): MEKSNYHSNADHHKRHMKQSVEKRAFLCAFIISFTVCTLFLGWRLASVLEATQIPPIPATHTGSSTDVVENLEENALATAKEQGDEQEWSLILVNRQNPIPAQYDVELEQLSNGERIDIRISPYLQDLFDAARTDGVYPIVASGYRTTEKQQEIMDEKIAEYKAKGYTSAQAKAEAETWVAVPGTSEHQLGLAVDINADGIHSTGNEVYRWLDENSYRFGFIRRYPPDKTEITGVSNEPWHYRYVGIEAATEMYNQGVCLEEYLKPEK

[8] = molecular target: T2, D,D-carboxypeptidase (Enterococcus faecium); assay: Activity of D,D-carboxypeptidase in vancomycin-dependent VanB-type Enterococcus faecium BM4660 membrane fraction assessed as enzyme mediated D-Alanine release per mg protein at 8 ug/ml
[9] = molecular target: T2, D,D-carboxypeptidase (Enterococcus faecium); assay: Activity of D,D-carboxypeptidase in vancomycin-revertant and teicoplanin-sensitive VanB-type Enterococcus faecium BM4661 membrane fraction assessed as enzyme mediated D-Alanine release per mg protein at 8 ug/ml
[10] = molecular target: T2, D,D-carboxypeptidase (Enterococcus faecium); assay: Activity of D,D-carboxypeptidase in vancomycin-resistant and teicoplanin-sensitive VanB-type Enterococcus faecium BM4659 cytoplasmic fraction assessed as enzyme mediated D-Alanine release per mg protein at 8 ug/ml
[11] = molecular target: T2, D,D-carboxypeptidase (Enterococcus faecium); assay: Activity of D,D-carboxypeptidase in vancomycin-dependent VanB-type Enterococcus faecium BM4660 cytoplasmic fraction assessed as enzyme mediated D-Alanine release per mg protein at 8 ug/ml
[12] = molecular target: T2, D,D-carboxypeptidase (Enterococcus faecium); assay: Activity of D,D-carboxypeptidase in vancomycin-revertant and teicoplanin-sensitive VanB-type Enterococcus faecium BM4661 cytoplasmic fraction assessed as enzyme mediated D-Alanine release per mg protein at 8 ug/ml

Work on `CN[C@H](CC(C)C)C(=O)N[C@H]1C(=O)N[C@@H](CC(N)=O)C(=O)N[C@H]2C(=O)N[C@H]3C(=O)N[C@H](C(=O)N[C@H](C(=O)O)c4cc(O)cc(O)c4-c4cc3ccc4O)[C@H](O)c3ccc(c(Cl)c3)Oc3cc2cc(c3O[C@@H]2O[C@H](CO)[C@@H](O)[C@H](O)[C@H]2O[C@H]2C[C@](C)(N)[C@H](O)[C@H](C)O2)Oc2ccc(cc2Cl)[C@H]1O` [VANCOMYCIN] yielded an MIC (Enterococcus faecium [1]) of 64 µg/mL (≈ 44.2 µM), an MIC (Enterococcus faecium [2]) of 256 µg/mL (≈ 177 µM) and an MIC (Enterococcus faecium [3]) of 256 µg/mL (≈ 177 µM). For the same compound, the Activity [4] was 255 nmol/min/mg, the Activity [5] was 99 nmol/min/mg and the Activity [6] was 128 nmol/min/mg. It also gave an Activity [7] of 115 nmol/min/mg, an Activity [8] of 30 nmol/min/mg and an Activity [9] of 27 nmol/min/mg. It also gave an Activity [10] of 13 nmol/min/mg, an Activity [11] of 5.3 nmol/min/mg and an Activity [12] of 4.3 nmol/min/mg.
